The values below come from paper PMC13120037 (2026).

The subject of assay [1] is Seq78-4 (DNA, aptamer) GGGAGCTCAGAATAAACGCTCAATTTTCGCTGGCTAGTCAGTTTTCTCGTCGTGTGATTTCGACATGAGGCCCGGATC
Description: AuNP colorimetric assay (A520). The following applies: Na+ (NaCl 40 mM final, added after binding); room temperature, 30 min; 1 μg/mL α-amanitin, aptamer 0-1600 nM; 35 or 78 nt form not stated.

Assay [2] deals with Seq78-7 (DNA, aptamer) GGGAGCTCAGAATAAACGCTCAAGTTCCTCTATTCTAGTTATGCGCTACGTACGCTAGTTCGACATGAGGCCCGGATC
Description: magnetic-bead strand release, supernatant absorbance (Nanodrop). The following applies: 25 °C, 60 min; 20 μM α-amanitin; capture strand Capture-am-biotin displaced; Langmuir single-point calculation, not fitted.

In assay [3] the test system is Seq78-9 (DNA, aptamer) GGGAGCTCAGAATAAACGCTCAACTTTTCTGGTTACTCTCGTTTGTTTGATGTTACTTTTCGACATGAGGCCCGGATC
In words: AuNP colorimetric assay (A520). The following applies: Na+ (NaCl 40 mM final, added after binding); room temperature, 30 min; 1 μg/mL α-amanitin, aptamer 0-1600 nM; 35 or 78 nt form not stated.

For assay [4], the system named is Seq78-7 (DNA, aptamer) GGGAGCTCAGAATAAACGCTCAAGTTCCTCTATTCTAGTTATGCGCTACGTACGCTAGTTCGACATGAGGCCCGGATC
In words: AuNP colorimetric assay (A520). Particulars: Na+ (NaCl 40 mM final, added after binding); room temperature, 30 min; 1 μg/mL α-amanitin, aptamer 0-1600 nM; 35 or 78 nt form not stated.

Assay [5] has as its system Seq78-2 (DNA, aptamer) GGGAGCTCAGAATAAACGCTCAAGCACGCGTCGTCTTCCTGCGCTTCTCCCCGCATCATTCGACATGAGGCCCGGATC
In words: AuNP colorimetric assay (A520). The following applies: Na+ (NaCl 40 mM final, added after binding); room temperature, 30 min; 1 μg/mL α-amanitin, aptamer 0-1600 nM; 35 or 78 nt form not stated.

For assay [6], the system named is Seq78-9 (DNA, aptamer) GGGAGCTCAGAATAAACGCTCAACTTTTCTGGTTACTCTCGTTTGTTTGATGTTACTTTTCGACATGAGGCCCGGATC
In words: magnetic-bead strand release, supernatant absorbance (Nanodrop). Particulars: 25 °C, 60 min; 20 μM α-amanitin; capture strand Capture-am-biotin displaced; Langmuir single-point calculation, not fitted.

The subject of assay [7] is Seq78-2 (DNA, aptamer) GGGAGCTCAGAATAAACGCTCAAGCACGCGTCGTCTTCCTGCGCTTCTCCCCGCATCATTCGACATGAGGCCCGGATC
The assay is described as above. Particulars: 25 °C, 60 min; 20 μM α-amanitin; capture strand Capture-am-biotin displaced; Langmuir single-point calculation, not fitted.

The test system of assay [8] is Seq78-4 (DNA, aptamer) GGGAGCTCAGAATAAACGCTCAATTTTCGCTGGCTAGTCAGTTTTCTCGTCGTGTGATTTCGACATGAGGCCCGGATC
The assay is described as above. The following applies: 25 °C, 60 min; 20 μM α-amanitin; capture strand Capture-am-biotin displaced; Langmuir single-point calculation, not fitted.

Take `CC[C@H](C)[C@@H]1NC(=O)CNC(=O)[C@@H]2Cc3c([nH]c4cc(O)ccc34)[S@](=O)C[C@H](NC(=O)CNC1=O)C(=O)N[C@@H](CC(N)=O)C(=O)N1C[C@H](O)C[C@H]1C(=O)N[C@@H]([C@@H](C)[C@@H](O)CO)C(=O)N2`: the Kd is 0.06 ± 0.003 µM in assay [1]; 0.256 ± 0.005 µM in assay [2]; 0.881 ± 0.006 µM in assay [3]; 0.216 ± 0.003 µM in assay [4]; 0.82 ± 0.005 µM in assay [5]; 0.91 ± 0.031 µM in assay [6]. Also, the figures for the Kd in assay [7] and in assay [8] were 0.85 ± 0.045 µM and 0.0578 ± 0.001001 µM, respectively.

What is called Kd is the free concentration of one partner at which half of the binding sites on the other are occupied at equilibrium, for simple one-to-one binding.
